In ChEMBL document CHEMBL1122602, “2-Acetylpyridine thiosemicarbazones. 8. Derivatives of 1-acetylisoquinoline as potential antimalarial agents” (1984) one finds toxic deaths data, which are given here for 13 compounds.

Common to all, as to type: functional
Assay [1] relates to Mus musculus. Briefly: Antimalarial activity was assessed against Plasmodium berghei in mice (Mus musculus) at 640 mg/kg dosage of the compound; Toxic.
For assay [2], the system named is Mus musculus. As to the kind of experiment: Antimalarial activity was assessed against Plasmodium berghei in mice (Mus musculus) at 160 mg/kg dosage of the compound; Toxic.
Assay [3] has as its system Mus musculus. Briefly: Antimalarial activity was assessed against Plasmodium berghei in mice (Mus musculus) at 320 mg/kg dosage of the compound; Toxic.
Assay [4] deals with Mus musculus. Briefly: Antimalarial activity was assessed against Plasmodium berghei in mice (Mus musculus) at 640 mg/kg dosage of the compound: Toxic.
Assay [5] relates to Mus musculus. Briefly: Antimalarial activity was assessed against Plasmodium berghei in mice (Mus musculus). at 320 mg/kg dosage of the compound; Toxic.

Consider `C/C(=N\N=C(/S)N(C)C1CCCCC1)c1nccc2ccccc12`, for which the toxic deaths was found to be 5 count with Mus musculus [1] and 1 count with Mus musculus [2].
Take `C/C(=N\N=C(/S)N1CC(C)OC(C)C1)c1nccc2ccccc12` (stereo unspecified): the figures for the toxic deaths in the assay with Mus musculus [1] and with Mus musculus [3] were 2 count and 1 count, respectively.
Turning to `C/C(=N\N=C(/S)N1CCCCCC1)c1nccc2ccccc12`, the toxic deaths with Mus musculus [1] stood at 4 count.
In the case of `C/C(=N\N=C(/S)N(C)C)c1nccc2ccccc12`, the toxic deaths in the assay on Mus musculus [1] and with Mus musculus [3] was 5 count each time.
As for `CC(N/N=C(\S)N1CCN(c2ccccn2)CC1)c1nccc2ccccc12` (stereo unspecified), the toxic deaths with Mus musculus [1] worked out at 1 count; with Mus musculus [3] it was 2 count.
As for `CC(N/N=C(\S)N(C)C)c1nccc2ccccc12` (stereo unspecified), the toxic deaths turned out to be 5 count in the assay on Mus musculus [1] and 1 count in the assay on Mus musculus [2].
Take `CC1CCN(/C(S)=N/NC(C)c2nccc3ccccc23)CC1` (stereo unspecified): the toxic deaths in the assay with Mus musculus [1] and with Mus musculus [3] was 5 count throughout.
`CC(N/N=C(\S)N1CCCCCC1)c1nccc2ccccc12` (stereo unspecified): the toxic deaths in the assay with Mus musculus [1] is 2 count; in the assay with Mus musculus [3] it was 3 count.
For the compound `CC(N/N=C(\S)N(C)C1CCCCC1)c1nccc2ccccc12` (stereo unspecified), the toxic deaths in the assay on Mus musculus [1] is 3 count; with Mus musculus [3], 3 count; with Mus musculus [2], 2 count.
For the compound `CC(N/N=C(\S)N1CCCC1)c1nccc2ccccc12` (stereo unspecified), the results for the toxic deaths in the assay on Mus musculus [1] and in the assay on Mus musculus [3] were 4 count and 2 count, respectively.
Consider `C/C(=N\N=C(/S)N1CCC(C)CC1)c1nccc2ccccc12`, for which the toxic deaths in the assay on Mus musculus [3] is 5 count; in the assay with Mus musculus [2], 1 count; with Mus musculus [4], 5 count.
On to `C/C(=N\N=C(/S)N1CCCC1)c1nccc2ccccc12`, for which the toxic deaths in the assay with Mus musculus [1] was determined as 5 count.
For `CC1CN(/C(S)=N/NC(C)c2nccc3ccccc23)CC(C)O1` (stereo unspecified), the toxic deaths in the assay with Mus musculus [1] and with Mus musculus [5] was 1 count each time.
